Results published in ChEMBL document CHEMBL5113434, “Discovery of novel Thieno[2,3-d]imidazole derivatives as agonists of human STING for antitumor immunotherapy using systemic administration” (Eur J Med Chem, 2022).
One block for each compound: values may come before it. The source made the active and inactive calls. No cut-off for these calls is given here.

Tests used:
[1] = target: T1, Stimulator of interferon genes protein (Homo sapiens, UniProt Q86WV6); assay: Agonist activity at STING (unknown origin)
T1 sequence (Q86WV6 whole entry): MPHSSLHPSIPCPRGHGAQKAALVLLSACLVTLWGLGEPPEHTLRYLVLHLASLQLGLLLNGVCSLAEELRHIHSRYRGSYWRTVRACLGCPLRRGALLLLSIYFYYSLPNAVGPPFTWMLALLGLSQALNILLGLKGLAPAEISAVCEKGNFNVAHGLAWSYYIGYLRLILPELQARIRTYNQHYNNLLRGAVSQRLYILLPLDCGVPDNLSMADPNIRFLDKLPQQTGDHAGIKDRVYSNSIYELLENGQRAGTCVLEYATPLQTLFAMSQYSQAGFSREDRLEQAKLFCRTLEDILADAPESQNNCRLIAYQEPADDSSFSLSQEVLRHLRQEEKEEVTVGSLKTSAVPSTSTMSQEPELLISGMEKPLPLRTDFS

[2] = target: T1, Stimulator of interferon genes protein; assay: Agonist activity at STING in human THP1-Dual cells assessed as fold change in ISG activation at 10 uM incubated for 24 hrs by Quanti-luc reagent based assay relative to control; assay type: cell-based; conditions: filed as agonist
[3] = target: T2, Stimulator of interferon genes protein (Mus musculus) (UniProt Q3TBT3); assay: Agonist activity at STING in mouse RAW-Lucia ISG cells assessed as fold change in ISG activation at 50 uM incubated for 24 hrs by Quanti-luc reagent based assay relative to control; assay type: cell-based; conditions: filed as agonist
T2 sequence (whole entry): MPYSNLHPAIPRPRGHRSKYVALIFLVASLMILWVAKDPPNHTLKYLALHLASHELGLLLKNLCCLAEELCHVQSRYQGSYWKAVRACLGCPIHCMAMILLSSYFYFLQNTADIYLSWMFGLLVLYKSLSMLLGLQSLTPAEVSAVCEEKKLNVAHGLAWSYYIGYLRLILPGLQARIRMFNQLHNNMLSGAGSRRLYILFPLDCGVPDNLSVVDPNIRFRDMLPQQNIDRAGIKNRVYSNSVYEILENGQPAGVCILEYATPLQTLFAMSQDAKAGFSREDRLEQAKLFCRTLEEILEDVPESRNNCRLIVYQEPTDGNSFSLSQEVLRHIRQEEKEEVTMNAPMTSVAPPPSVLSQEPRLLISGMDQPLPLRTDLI

[4] = target: T1, Stimulator of interferon genes protein; assay: Agonist activity at STING in human THP1-Dual cells assessed as ISG activation incubated for 24 hrs by Quanti-luc reagent based assay; assay type: cell-based
[5] = target: T3, Stimulator of interferon genes protein (Mus musculus, UniProt Q3TBT3); assay: Agonist activity at STING in mouse RAW-Lucia ISG cells assessed as ISG activation incubated for 24 hrs by Quanti-luc reagent based assay; assay type: cell-based
T3 sequence (Q3TBT3 whole entry): T2 sequence (whole entry)

[6] = Agonist activity at human STING R232H mutant
[7] = target: T1, Stimulator of interferon genes protein; assay: Activation of STING pathway in human THP1-Dual cells assessed as increase in IFNbeta expression level at 0.01 to 1 uM measured for 24 hrs by chemiluminescence based analysis; assay type: cell-based; conditions: filed as activator, dose 0.01-1 µM
[8] = target: T1, Stimulator of interferon genes protein; assay: Activation of STING pathway in human THP1-Dual cells assessed as increase in IFNbeta expression level at 0.1 uM measured for 24 hrs by chemiluminescence based analysis; assay type: cell-based; conditions: filed as activator
[9] = target: T1, Stimulator of interferon genes protein; assay: Activation of STING pathway in human THP1-Dual cells assessed as increase in IP-10 expression level at 0.01 to 1 uM measured for 24 hrs by chemiluminescence based analysis; assay type: cell-based; conditions: filed as activator, dose 0.01-1 µM
[10] = target: T1, Stimulator of interferon genes protein; assay: Activation of STING pathway in human THP1-Dual cells assessed as increase in IP-10 expression level at 0.1 uM measured for 24 hrs by chemiluminescence based analysis; assay type: cell-based; conditions: filed as activator
[11] = target: T1, Stimulator of interferon genes protein; assay: Activation of STING pathway in human 293T-Dual hSTING-H232 cells assessed as increase in IFNbeta expression level measured for 24 hrs by SEAP reporter based Quanti-luc assay; assay type: cell-based; conditions: filed as activator, dose 0.01-1 µM, DDE = dose-dependent effect
[12] = target: T1, Stimulator of interferon genes protein; assay: Activation of STING pathway in human 293T-Dual hSTING-H232 cells assessed as increase in ISG expression level measured for 24 hrs by SEAP reporter based Quanti-luc assay; assay type: cell-based; conditions: filed as activator, dose 0.01-1 µM, DDE = dose-dependent effect
[13] = Half life in BALB/c mouse at 1 mg/kg, iv measured up to 24 hrs by UPLC-MS/MS analysis; assay type: ADME, organism-based; conditions: in vivo
[14] = AUClast in BALB/c mouse at 1 mg/kg, iv measured up to 24 hrs by UPLC-MS/MS analysis; assay type: ADME, organism-based; parameters: time < 24 hrs, dose 1 mg/kg, route iv; conditions: in vivo
[15] = Observed AUC infinity in BALB/c mouse at 1 mg/kg, iv measured up to 24 hrs by UPLC-MS/MS analysis; assay type: ADME, organism-based; parameters: dose 1 mg/kg, time < 24 hrs, route iv; conditions: in vivo
[16] = Observed clearance in BALB/c mouse at 1 mg/kg, iv measured up to 24 hrs by UPLC-MS/MS analysis; assay type: ADME, organism-based; conditions: in vivo
[17] = Observed volume of distribution at steady state in BALB/c mouse at 1 mg/kg, iv measured up to 24 hrs by UPLC-MS/MS analysis; assay type: ADME, organism-based; conditions: in vivo, read-out: Vdss
[18] = target: T1, Stimulator of interferon genes protein; assay: Agonist activity at wild type human STING in HEK cells; assay type: cell-based

SMILES: O=C(c1ccc([N+](=O)[O-])cc1)N1CCc2cc(S(=O)(=O)N3C[C@@H](c4ccccc4)NC3=O)ccc21
EC50 [1]: 180 nM

SMILES: O=C(NCc1ccco1)c1ccc2c(c1)N(Cc1c(F)cccc1Cl)C(=O)CS2
EC50 [18]: 2490 nM

Further lines, results first:

fold change (FC) [2]: 141 | fold change (FC) [3]: 12.6 | EC50 [4]: 280 nM | EC50 [5]: > 100000 nM
SMILES: CCn1nc(C)cc1C(=O)Nc1nc2cc(C(N)=O)sc2n1C/C=C/Cn1c(NC(=O)c2cc(C)nn2CC)nc2cc(C(N)=O)cc(OCC3CC3)c21

EC50 [6]: 200 nM | Activity [7]: Active | Activity [8]: Active | Activity [9]: Active | Activity [10]: Active | Activity [11]: Dde | Activity [12]: Dde
SMILES: CCn1nc(C)cc1C(=O)/N=c1\[nH]c2cc(C(N)=O)cc(OC)c2n1C/C=C/Cn1/c(=N/C(=O)c2cc(C)nn2CC)[nH]c2cc(C(N)=O)cc(OCCCN3CCOCC3)c21

half-life [13]: 1.14 h | AUC(0-t) at 24 h [14]: 657 ng·h/mL | AUC(0-inf) [15]: 666 ng·h/mL | clearance [16]: 26 mL/min/kg | Vd [17]: 0.965 L/kg
SMILES: CCn1nc(C)cc1C(=O)Nc1nc2cc(C(N)=O)cc(OC)c2n1C/C=C/Cn1c(NC(=O)c2cc(C)nn2CC)nc2cc(C(N)=O)cc(OCCCN3CCOCC3)c21
